Type in all cases: cell-based, mouse
Test [1] relates to Hedgehog Signaling Pathway. Nature of the test: SAG-induced differentiation of C3H10T1/2 cells into osteoblastic cells, intracellular alkaline phosphatase activity. As to conditions: Mus musculus, C3H 10T1/2, 120 h, 1 μM SAG, 5 days, alkaline phosphatase activity (OD405), read-out: IC50 values of compounds that inhibit Hh pathway. In outline: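 Mouse C3H10T1/2 cells were induced with SAG and exposed to compound (10 μM to 1 nM) for 5 days at 37 °C. Cells were lysed in 0.2% Triton, and alkaline phosphatase activity was read as OD405 over 30 min at 37 °C in pH 9.8 substrate buffer. IC50 came from a non-linear fit of background-subtracted OD405 against log concentration.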

In test [2] the test system is Hedgehog Signaling Pathway. Nature of the test: SHH-induced differentiation of C3H10T1/2 cells into osteoblastic cells, intracellular alkaline phosphatase activity. As to conditions: Mus musculus, C3H 10T1/2, 120 h, 10 nM SHH-N, 5 days, alkaline phosphatase activity (OD405), read-out: IC50 values of compounds that inhibit Hh pathway. Summed up: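 Mouse C3H10T1/2 cells were induced with 10 nM SHH-N alongside test compound (10 μM–10 nM) for 5 days at 37 °C. Cells were lysed in 0.2% Triton, and alkaline phosphatase activity was read at OD405 over 30 min at 37 °C with the background reading subtracted. IC50 came from a nonlinear fit against log concentration.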

Test [3] deals with Hedgehog Signaling Pathway. Nature of the test: Gli-Luc reporter gene cell assay in C3H10T1/2/Gli-Luc cells stimulated with Shh. As to conditions: Mus musculus, C3H 10T1/2, 24 h, 30 nM Shh, luciferase activity (RLU), read-out: IC50 values of compounds that inhibit Hh pathway. In outline:
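C3H10T1/2 cells stably carrying Gli-responsive luciferase were seeded overnight, then treated 24 h at 37 °C with compound (7-point dilution series, DMSO control) plus Shh (30 nM in added medium). Lysate luciferase RLU fitted against log concentration to derive IC50.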

Nine compounds from US10676468B2, “N-(3-heteroarylaryl)-4-arylarylcarboxamides and analogs as hedgehog pathway inhibitors and use thereof” (IMPACT Therapeutics, Inc., priority 2012, dated 2020) can be followed below.

SMILES strings stand for the structures.

`Cc1c(C(=O)Nc2ccc(Cl)c(-c3ncc(-c4ccco4)[nH]3)c2)ccc(N2C[C@@H](C)N(C)[C@@H](C)C2)c1F` [Example 148, N-(3-(5-(furan-2-yl)-1H-imidazol-2-yl)-4-chlorophenyl)-2-methyl-3-fluoro-4-((3S,5R)-3,4,5-trimethylpiperazin-1-yl)benzamide]: the IC50 was 15 nM in test [1], 0.33 nM in test [2] and 0.26 nM in test [3].
On to `C[C@@H]1CN(c2cc(Cl)c(C(=O)Nc3ccc(Cl)c(-c4ncc(-c5ccco5)[nH]4)c3)cc2F)C[C@H](C)N1C` [Example 149, N-(3-(5-(furan-2-yl)-1H-imidazol-2-yl)-4-chlorophenyl)-2-chloro-5-fluoro-4-((3S,5R)-3,4,5-trimethylpiperazin-1-yl)benzamide], for which the values for the IC50 in test [1], in test [2] and in test [3] were 15 nM, 0.27 nM and 0.28 nM, respectively.
For `C[C@@H]1CN(c2ccc(C(=O)Nc3ccc(Cl)c(-c4ncc(-c5nccs5)[nH]4)c3)c(Cl)c2)C[C@H](C)N1C` [Example 153, N-(3-(5-(thiazol-2-yl)-1H-imidazol-2-yl)-4-chlorophenyl)-2-chloro-4-((3S,5R)-3,4,5-trimethylpiperazin-1-yl)benzamide] the same measures were 280 nM, 34 nM and 8.7 nM.
In the case of `Cc1cc(N2C[C@@H](C)N(C)[C@@H](C)C2)ccc1C(=O)Nc1ccc(Cl)c(-c2ncc(-c3nccs3)[nH]2)c1` [Example 154, N-(3-(5-(thiazol-2-yl)-1H-imidazol-2-yl)-4-chlorophenyl)-2-methyl-4-((3S,5R)-3,4,5-trimethylpiperazin-1-yl)benzamide], the IC50 is 178 nM in test [1], 22 nM in test [2] and 6.7 nM in test [3].
As to `C[C@@H]1CN(c2ccc(C(=O)Nc3ccc(Cl)c(-c4ncc(-c5cccs5)[nH]4)c3)c(C(F)(F)F)c2)C[C@H](C)N1C` [Example 155, N-(3-(5-(thiophen-2-yl)-1H-imidazol-2-yl)-4-chlorophenyl)-2-(trifluoro-methyl)-4-((3S,5R)-3,4,5-trimethylpiperazin-1-yl)benzamide], the IC50 in test [1] is 13 nM; in test [2], 0.11 nM; in test [3], 0.22 nM.
On to `Cc1c(C(=O)Nc2ccc(Cl)c(-c3ncc(-c4cccs4)[nH]3)c2)ccc(N2C[C@@H](C)N(C)[C@@H](C)C2)c1F` [Example 156, N-(3-(5-(thiophen-2-yl)-1H-imidazol-2-yl)-4-chlorophenyl)-2-methyl-3-fluoro-4-((3S,5R)-3,4,5-trimethylpiperazin-1-yl)benzamide], for which the values for the IC50 in test [1], in test [2] and in test [3] were 7 nM, 0.2 nM and 0.21 nM, respectively.
In the case of `C[C@@H]1CN(c2cc(Cl)c(C(=O)Nc3ccc(Cl)c(-c4ncc(-c5cccs5)[nH]4)c3)cc2F)C[C@H](C)N1C` [Example 157, N-(3-(5-(thiophen-2-yl)-1H-imidazol-2-yl)-4-chlorophenyl)-2-chloro-5-fluoro-4-((3S,5R)-3,4,5-trimethylpiperazin-1-yl)benzamide], the results for the IC50 in test [1], in test [2] and in test [3] were 10 nM, 0.15 nM and 0.23 nM, respectively.
Turning to `CCN1[C@H](C)CN(c2ccc(C(=O)Nc3ccc(Cl)c(-c4ncc(-c5cccs5)[nH]4)c3)c(Cl)c2)C[C@@H]1C` [Example 158, N-(3-(5-(thiophen-2-yl)-1H-imidazol-2-yl)-4-chlorophenyl)-2-chloro-4-((3S,5R)-4-ethyl-3,5-dimethylpiperazin-1-yl)benzamide], the IC50 in test [1] came to 8.2 nM; in test [2] it was 0.42 nM; in test [3] it was 0.3 nM.
`CC(C)N1[C@H](C)CN(c2ccc(C(=O)Nc3ccc(Cl)c(-c4ncc(-c5cccs5)[nH]4)c3)c(Cl)c2)C[C@@H]1C` [Example 159, N-(3-(5-(thiophen-2-yl)-1H-imidazol-2-yl)-4-chlorophenyl)-2-chloro-4-((3S,5R)-4-isopropyl-3,5-dimethylpiperazin-1-yl)benzamide]: the IC50 in test [1] was 10 nM; in test [2], 0.36 nM; in test [3] it was 0.31 nM.
